# Test results: patent publication US5401743A, “Aminoalkyl-substituted 2-amino-5-mercaptothiadiazoles the preparation and use thereof” (BASF Aktiengesellschaft, priority 1991, dated 1995)
# Structures can show the parent of a compound that is named as a salt. Where two headings read alike, the source gives them in different places.
# Target: T1, dopamine D2 receptor (Rattus norvegicus, UniProt P61169)
# T1 construct: Striata from rats (Sprague Dawley, Charles River) were homogenized immediately after removal; from tissue; host or cells: rat striatum (Sprague Dawley, Charles River), membranes
# T1 sequence (P61169 whole entry): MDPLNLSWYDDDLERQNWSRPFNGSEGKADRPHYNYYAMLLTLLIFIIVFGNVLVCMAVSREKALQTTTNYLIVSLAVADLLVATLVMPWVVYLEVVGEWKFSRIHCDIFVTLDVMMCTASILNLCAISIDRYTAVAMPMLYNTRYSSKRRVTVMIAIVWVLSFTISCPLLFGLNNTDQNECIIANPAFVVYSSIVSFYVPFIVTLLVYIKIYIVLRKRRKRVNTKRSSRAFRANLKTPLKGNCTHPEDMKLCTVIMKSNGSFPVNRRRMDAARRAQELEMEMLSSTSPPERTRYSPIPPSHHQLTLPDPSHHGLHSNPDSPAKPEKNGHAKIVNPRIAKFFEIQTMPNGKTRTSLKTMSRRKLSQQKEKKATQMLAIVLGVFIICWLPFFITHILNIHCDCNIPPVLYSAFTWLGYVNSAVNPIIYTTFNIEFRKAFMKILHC
# Assay: Receptor binding assay: affinity for the dopamine D2 receptor (3H-ADTN displacement, rat striatal membranes)
# Set-up: species or system rat (Sprague Dawley)
# Description: The effects of the novel compounds can be shown in the receptor binding assay as follows:
# Striata from rats (Sprague Dawley, Charles River) were homogenized immediately after removal in 0.32M sucrose solution (0° C.). The homogenate was filtered through gauze, the filtrate was centrifuged at 1000 xg (5 min at 4° C.) and the resulting supernatant was centrifuged at 40000 xg (4° C., 10 min). The residue (membranes) was taken up in incubation buffer (50 mM tris-HCl, 1 mM MgCl2 and 0.1% ascorbic acid, pH 7.4) and incubated at 37° C. for 20 min. The residue was subsequently washed 2× with incubation buffer by resuspension and recentrifugation. The membranes were frozen in portions in liquid nitrogen.
# The assay mixtures (1 ml) were composed of membranes (380 μg of protein), 1 nM ^3 H-ADTN (NEN, Dreieich Germany, specific radioactivity 1.4 TBq/mmol) and 0.1 μM SCH 23390 (total binding) or a) with the addition of 50 nM spiperone (non-specific binding) or b) with test substance. The mixtures were prepared in triplicate.
# After the incubation (40 min at 25° C.) the mixtures were filtered through glass fiber filters (Whatman GF/B) and briefly washed with ice-cold washing buffer (Tris-HCl, pH 7.4). The radioactivity retained on the filters was determined by liquid scintillation counting. The non-specific binding comprised about 40-50% of the total binding.
# The evaluation of the competition plots and the determination of the dissociation constant took place by iterative non-linear regression analysis based on the "ligand" program (Muson and Rodbard: Anal. Biochem. 107 (1980) 220).
# Affinity of the test substances for the dopamine D2 receptor
# [1] = rat striatal membranes, 1 nM 3H-ADTN, 0.1 μM SCH 23390, 40 min at 25° C., pH 7.4, non-specific binding with 50 nM spiperone, read-out: Ki (affinity of the test substances for the dopamine D2 receptor)
Compound,Ki [1],Ki
"Nc1nnc(SCCN2CC=C(c3ccccc3)CC2)s1 [Example 3, 2-Amino-5-[2-(4-phenyl-1,2,3,6-tetrahydropyridyl)-ethylthio]-1,3,4-thiadiazole dihydrochloride]",,12 nM
"Nc1nnc(SCCCN2CC=C(c3ccccc3)CC2)s1 [Example 4, 2-Amino-5-[3-(4-phenyl-1,2,3,6-tetrahydropyridyl)-propylthio]-1,3,4-thiadiazole hydrochloride]",,6 nM
"Nc1nnc(SCCCN2CCN(c3ccc(F)cc3)CC2)s1 [Example 1, 2-Amino-5-[3-(4-fluorophenylpiperazinyl)propylthio]-1,3,4-thiadiazole dihydrochloride]",125 nM,
"CCCN(CCCSc1nnc(N)s1)CCc1ccccc1 [Example 9, 2-Amino-5-[3-(2-phenylethyl-n-propylamino)propylthio]-1,3,4-thiadiazole tartrate]",45 nM,

# Further lines, with some results ahead:
Ki [1],Compound,Ki
36 nM,"Cc1cccc(N2CCN(CCCSc3nnc(N)s3)CC2)c1 [Example 14, 2-Amino-5-[3-(4-(3-methylphenyl)piperazinyl)propylthio]-1,3,4-thiadiazole hydrochloride]",
45 nM,"Nc1nnc(SCCN2CCC(c3ccccc3)CC2)s1 [Example 8, 2-Amino-5-[2-(4-phenylpiperidinyl)ethylthio]-1,3,4-thiadiazole hydrochloride]",
15 nM,"CCOc1ccccc1N1CCN(CCSc2nnc(N)s2)CC1 [Example 11, 2-Amino-5-[2-(4-(2-ethoxyphenyl)piperazinyl)ethylthio]-1,3,4-thiadiazole hydrochloride]",
